Bounds are passed on as bounds.

For one assay, the target named is T1, mAChR M1 (UniProt P08482).
T1 sequence (P08482 1-460): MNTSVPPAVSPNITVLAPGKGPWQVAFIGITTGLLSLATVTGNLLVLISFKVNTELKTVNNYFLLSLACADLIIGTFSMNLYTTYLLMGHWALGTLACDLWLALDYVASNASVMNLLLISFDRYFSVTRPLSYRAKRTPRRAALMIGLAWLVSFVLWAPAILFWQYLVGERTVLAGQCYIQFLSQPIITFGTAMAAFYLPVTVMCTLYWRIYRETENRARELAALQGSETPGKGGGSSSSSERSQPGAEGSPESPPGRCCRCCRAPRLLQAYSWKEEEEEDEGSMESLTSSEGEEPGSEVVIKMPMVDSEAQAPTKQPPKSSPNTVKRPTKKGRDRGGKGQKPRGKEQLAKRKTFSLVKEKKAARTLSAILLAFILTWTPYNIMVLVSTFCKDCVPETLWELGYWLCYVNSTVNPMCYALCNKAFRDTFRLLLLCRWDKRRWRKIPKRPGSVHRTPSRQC
Kind of assay: mAChR M1 cell-based functional assay (calcium mobilization, PAM mode). The note with it: positive allosteric modulator activity: concentration-dependent increase in the EC20 acetylcholine response; calcium flux in CHO-K1 cells stably expressing mAChR M1. An excerpt: The calcium mobilization assay was also used to determine “efficacy”.
N-Substituted 3,4-dihydro-benzo[b][1,4]oxazine-2-carboxamide analogs were synthesized as described above. […] The compound number corresponds to the compound numbers used in Table I.
Turning to `O=C(Nc1ccccc1F)C1CN(Cc2ccc(-n3cccn3)cc2)c2ccccc2O1` (stereo not drawn) [Compound B55], the concentration giving a half-maximal response (EC50) was at least 10 µM.

Staying with this assay, now noted: positive allosteric modulator activity: concentration-dependent increase in the EC20 acetylcholine response; calcium flux in CHO-K1 cells stably expressing mAChR M1; read-out: EC50.
As to `COc1ccc(CN2C[C@H](C(=O)N[C@H]3CCCC[C@@H]3O)Oc3ccccc32)cc1` (single isomer, unassigned) [Compound B9], the EC50 was determined as 7.75 µM.
Same read-out and setting: to `COc1ccc(CN2C[C@@H](C(=O)N[C@H]3CCCC[C@@H]3O)Oc3ccccc32)cc1` (single isomer, unassigned) [Compound B10] belongs at least 10 µM; to `CC(C)C[C@@H](CO)NC(=O)[C@@H]1CN(Cc2ccc(-n3cccn3)cc2)c2ccccc2O1` (single isomer, unassigned) [Compound B19], 3.69 µM; to `CC(C)C[C@@H](CO)NC(=O)[C@H]1CN(Cc2ccc(-n3cccn3)cc2)c2ccccc2O1` (single isomer, unassigned) [Compound B20], 2.07 µM.
On to `O=C(N[C@H]1CCCC[C@@H]1O)C1CN(Cc2ccc(-n3cccn3)cc2)c2ccccc2O1` (single isomer, unassigned) [Compound B29], for which the EC50 was determined as 0.573 µM.
For the compound `O=C(N[C@H]1CCCC[C@@H]1O)C1CN(Cc2ccc(-n3cccn3)cc2)c2ccccc2O1` (single isomer, unassigned) [Compound B41], the half-maximal effective concentration (EC50) was 0.199 µM.
Same read-out and setting: the same measure for `O=C(N[C@H]1CCCC[C@@H]1O)C1CN(Cc2ccc(-n3cccn3)cc2)c2ccccc2O1` (stereo partly drawn) [Compound B1, 4-(4-(1H-pyrazol-1-yl)benzyl)-N-((1S,2S)-2-hydroxycyclohexyl)-3,4-dihydro-2H-benzo[b][1,4]oxazine-2-carboxamide]: 0.302 µM; for `O=C(Nc1ncccc1O)C1CN(Cc2ccc(-n3cccn3)cc2)c2ccccc2O1` (stereo not drawn) [Compound B2, 4-(4-(1H-pyrazol-1-yl)benzyl)-N-(3-hydroxypyridin-2-yl)-3,4-dihydro-2H-benzo[b][1,4]oxazine-2-carboxamide]: 0.543 µM; for `O=C(NC1COC1)C1CN(Cc2ccc(-n3cccn3)cc2)c2ccccc2O1` (stereo not drawn) [Compound B3]: at least 10 µM.
In the case of `O=C(N[C@H]1CCCC[C@@H]1O)C1CN(Cc2c(F)cc(Br)cc2F)c2ccccc2O1` (stereo partly drawn) [Compound B4, 4-(4-bromo-2,6-difluorobenzyl)-N-((1S,2S)-2-hydroxycyclohexyl)-3,4-dihydro-2H-benzo[b][1,4]oxazine-2-carboxamide], the EC50 is above 30 µM.
Take `COc1ccc(CN2CC(C(=O)N[C@H]3CCCC[C@@H]3O)Oc3ccccc32)cc1` (stereo partly drawn) [Compound B5]: the EC50 was at least 10 µM.
Turning to `Cn1cc2c(-c3cc(F)c(CN4CC(C(=O)N[C@H]5CCCC[C@@H]5O)Oc5ccccc54)c(F)c3)cccc2n1` (stereo partly drawn) [Compound B6, 4-(2,6-difluoro-4-(2-methyl-2H-indazol-4-yl)benzyl)-N-((1S,2S)-2-hydroxycyclohexyl)-3,4-dihydro-2H-benzo[b][1,4]oxazine-2-carboxamide], the EC50 was at least 10 µM.
For the compound `Cn1cc(-c2ccc(CN3CC(C(=O)N[C@H]4CCCC[C@@H]4O)Oc4ccccc43)cc2)cn1` (stereo partly drawn) [Compound B7], the EC50 is above 30 µM.
For the compound `O=C(N[C@H]1CCCC[C@@H]1O)C1CN(Cc2ccc(Cl)nc2)c2ccccc2O1` (stereo partly drawn) [Compound B8], the EC50 is 4.21 µM.
On the same count and under the same terms, the same measure for `CC(C)CNC(=O)C1CN(Cc2ccc(-n3cccn3)cc2)c2ccccc2O1` (stereo not drawn) [Compound B11]: 3.56 µM.
The same measure, in the same setting: to `O=C(NCc1ccccn1)C1CN(Cc2ccc(-n3cccn3)cc2)c2ccccc2O1` (stereo not drawn) [Compound B12] belongs 4.82 µM.
Still for that read-out and setting: to `COC(=O)CNC(=O)C1CN(Cc2ccc(-n3cccn3)cc2)c2ccccc2O1` (stereo not drawn) [Compound B13] belongs 1.44 µM; to `O=C(Nc1ccccc1O)C1CN(Cc2ccc(-n3cccn3)cc2)c2ccccc2O1` (stereo not drawn) [Compound B14], at least 10 µM; to `O=C(Nc1ccccn1)C1CN(Cc2ccc(-n3cccn3)cc2)c2ccccc2O1` (stereo not drawn) [Compound B15], at least 10 µM.
For the compound `CC(C)(CO)NC(=O)C1CN(Cc2ccc(-n3cccn3)cc2)c2ccccc2O1` (stereo not drawn) [Compound B16], the EC50 was above 30 µM.
Same read-out and setting: to `O=C(NC1CC1)C1CN(Cc2ccc(-n3cccn3)cc2)c2ccccc2O1` (stereo not drawn) [Compound B17] belongs at least 10 µM.
On the same count and under the same terms, the same measure for `O=C(NC1CCCCC1)C1CN(Cc2ccc(-n3cccn3)cc2)c2ccccc2O1` (stereo not drawn) [Compound B18]: at least 10 µM.
Consider `CNC(=O)C1CN(Cc2ccc(-n3cccn3)cc2)c2ccccc2O1` (stereo not drawn) [Compound B21], for which the 50% effective concentration (EC50) came out at 5.36 µM.
Still for that read-out and setting: to `CC(C)NC(=O)C1CN(Cc2ccc(-n3cccn3)cc2)c2ccccc2O1` (stereo not drawn) [Compound B22] belongs at least 10 µM; to `O=C(NC1CCOC1)C1CN(Cc2ccc(-n3cccn3)cc2)c2ccccc2O1` (stereo not drawn) [Compound B23], at least 10 µM.
Same read-out and setting: to `O=C(NCCCN1CCOCC1)C1CN(Cc2ccc(-n3cccn3)cc2)c2ccccc2O1` (stereo not drawn) [Compound B24] belongs at least 10 µM; to `COc1ccc(OCCNC(=O)C2CN(Cc3ccc(-n4cccn4)cc3)c3ccccc3O2)cc1` (stereo not drawn) [Compound B25], above 30 µM.
Same read-out and setting: the same measure for `O=C(NCC(F)(F)F)C1CN(Cc2ccc(-n3cccn3)cc2)c2ccccc2O1` (stereo not drawn) [Compound B26]: above 30 µM; for `O=C(NC1CCC1)C1CN(Cc2ccc(-n3cccn3)cc2)c2ccccc2O1` (stereo not drawn) [Compound B27]: 7.66 µM.
With `O=C(NC1CCCC1)C1CN(Cc2ccc(-n3cccn3)cc2)c2ccccc2O1` (stereo not drawn) [Compound B28], the EC50 is at least 10 µM.
On to `O=C(NC1CCOCC1)C1CN(Cc2ccc(-n3cccn3)cc2)c2ccccc2O1` (stereo not drawn) [Compound B30], for which the EC50 worked out at 4.43 µM.
Still for that read-out and setting: the same measure for `O=C(Nc1ccccc1)C1CN(Cc2ccc(-n3cccn3)cc2)c2ccccc2O1` (stereo not drawn) [Compound B31]: above 30 µM; for `NC(=O)C1CN(Cc2ccc(-n3cccn3)cc2)c2ccccc2O1` (stereo not drawn) [Compound B32]: 3.3 µM.
Same read-out and setting: the same measure for `O=C(NCCO)C1CN(Cc2ccc(-n3cccn3)cc2)c2ccccc2O1` (stereo not drawn) [Compound B33]: 6.54 µM.
Same read-out and setting: the same measure for `CC1(NC(=O)C2CN(Cc3ccc(-n4cccn4)cc3)c3ccccc3O2)COC1` (stereo not drawn) [Compound B34]: above 30 µM.
As to `C[C@@H](CO)NC(=O)C1CN(Cc2ccc(-n3cccn3)cc2)c2ccccc2O1` (stereo partly drawn) [Compound B35], the 50% effective concentration (EC50) was 4.66 µM.
Same read-out and setting: the same measure for `CC(C)(O)CNC(=O)C1CN(Cc2ccc(-n3cccn3)cc2)c2ccccc2O1` (stereo not drawn) [Compound B36]: 3.8 µM; for `O=C(NC1CCCOC1)C1CN(Cc2ccc(-n3cccn3)cc2)c2ccccc2O1` (stereo not drawn) [Compound B37]: at least 10 µM; for `O=C(NCCOc1ccccc1F)C1CN(Cc2ccc(-n3cccn3)cc2)c2ccccc2O1` (stereo not drawn) [Compound B38]: above 30 µM.
With `COc1ccccc1OCCNC(=O)C1CN(Cc2ccc(-n3cccn3)cc2)c2ccccc2O1` (stereo not drawn) [Compound B39], the EC50 was above 30 µM.
Still for that read-out and setting: the same measure for `O=C(NCCOc1ccc(F)cc1)C1CN(Cc2ccc(-n3cccn3)cc2)c2ccccc2O1` (stereo not drawn) [Compound B40]: above 30 µM; for `O=C(N[C@H]1CCCC[C@@H]1O)C1CN(Cc2ccc(C(F)(F)F)nc2)c2ccccc2O1` (stereo partly drawn) [Compound B42]: 4.7 µM.
The same measure, in the same setting: to `COCC(C)NC(=O)C1CN(Cc2ccc(-n3cccn3)cc2)c2ccccc2O1` (stereo not drawn) [Compound B43] belongs at least 10 µM; to `O=C(N[C@@H](CO)[C@H](O)c1ccccc1)C1CN(Cc2ccc(-n3cccn3)cc2)c2ccccc2O1` (stereo partly drawn) [Compound B44], at least 10 µM.
On the same count and under the same terms, the same measure for `O=C(Nc1cccc2cn[nH]c12)C1CN(Cc2ccc(-n3cccn3)cc2)c2ccccc2O1` (stereo not drawn) [Compound B45]: 7.38 µM.
Turning to `O=C(NCC(O)C(F)(F)F)C1CN(Cc2ccc(-n3cccn3)cc2)c2ccccc2O1` (stereo not drawn) [Compound B46], the EC50 came to 2.28 µM.
The same measure, in the same setting: to `O=C(Nc1ccn[nH]1)C1CN(Cc2ccc(-n3cccn3)cc2)c2ccccc2O1` (stereo not drawn) [Compound B47] belongs above 30 µM; to `COc1cccnc1NC(=O)C1CN(Cc2ccc(-n3cccn3)cc2)c2ccccc2O1` (stereo not drawn) [Compound B48], 2.4 µM; to `O=C(Nc1ncc(F)cc1F)C1CN(Cc2ccc(-n3cccn3)cc2)c2ccccc2O1` (stereo not drawn) [Compound B49], at least 10 µM.
The same measure, in the same setting: to `O=C(Nc1ncccc1F)C1CN(Cc2ccc(-n3cccn3)cc2)c2ccccc2O1` (stereo not drawn) [Compound B50] belongs 2.57 µM; to `COCCNC(=O)C1CN(Cc2ccc(-n3cccn3)cc2)c2ccccc2O1` (stereo not drawn) [Compound B51], 7.65 µM.
As for `O=C(NCC(F)F)C1CN(Cc2ccc(-n3cccn3)cc2)c2ccccc2O1` (stereo not drawn) [Compound B52], the concentration giving a half-maximal response (EC50) was at least 10 µM.
Same read-out and setting: to `Cc1ccc(NC(=O)C2CN(Cc3ccc(-n4cccn4)cc3)c3ccccc3O2)c(O)c1` (stereo not drawn) [Compound B53] belongs above 30 µM; to `O=C(N[C@H]1CCC[C@@H]1O)C1CN(Cc2ccc(-n3cccn3)cc2)c2ccccc2O1` (stereo partly drawn) [Compound B54], 1.15 µM.
The same measure, in the same setting: to `Cc1ccccc1NC(=O)C1CN(Cc2ccc(-n3cccn3)cc2)c2ccccc2O1` (stereo not drawn) [Compound B56] belongs at least 10 µM.
Regarding `O=C(N[C@H]1CCCC[C@@H]1O)C1CN(Cc2ccc(C(F)(F)F)nc2)c2cccc(F)c2O1` (stereo partly drawn) [Compound B57, 8-fluoro-N-((1S,2S)-2-hydroxycyclohexyl)-4-((6-(trifluoromethyl)pyridin-3-yl)methyl)-3,4-dihydro-2H-benzo[b][1,4]oxazine-2-carboxamide], the 50% effective concentration (EC50) was 3.6 µM.

(Values after US9708278B2, “Substituted 4-benzyl-3,4-dihydro-2H-benzo[B][1,4]oxazine-2-carboxamide analogs as positive allosteric modulators of muscarinic acetycholine receptor M1” (Vanderbilt University, priority 2013, dated 2017).)
